Laboratory results from PubChem BioAssay (NCI).
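A five-concentration, 48-hour dose response in 96-well plates underlies each endpoint, interpolated linearly between surrounding concentrations. Here, GI50 denotes the concentration required for 50% inhibition of growth. TGI marks complete inhibition of growth.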

Columns and labels:
Experiment in all cases: inhibition of tumour cell growth, NCI panel, 48 h
OVCAR-4 ovarian = test system: OVCAR-4 ovarian
SF-268 CNS = test system: SF-268 CNS
HT29 colon = test system: HT29 colon
MCF7 breast = test system: MCF7 breast
HOP-92 NSCLC = test system: HOP-92 NSCLC
A549 NSCLC = test system: A549 NSCLC
SN12C renal = test system: SN12C renal
DU-145 prostate = test system: DU-145 prostate
NCI-H460 lung = test system: NCI-H460 lung
COLO 205 colon = test system: COLO 205 colon
ACHN renal = test system: ACHN renal
PC-3 prostate = test system: PC-3 prostate
CCRF-CEM leukemia = test system: CCRF-CEM leukemia
SNB-19 CNS = test system: SNB-19 CNS
UO-31 renal = test system: UO-31 renal
SK-MEL-28 melanoma = test system: SK-MEL-28 melanoma
HS 578T breast = test system: HS 578T breast
TK-10 renal = test system: TK-10 renal
RXF 393 renal = test system: RXF 393 renal
HOP-62 NSCLC = test system: HOP-62 NSCLC
BT-549 breast = test system: BT-549 breast
CAKI-1 renal = test system: CAKI-1 renal
MALME-3M melanoma = test system: MALME-3M melanoma
OVCAR-8 ovarian = test system: OVCAR-8 ovarian
SK-MEL-2 melanoma = test system: SK-MEL-2 melanoma
HCT-15 colon = test system: HCT-15 colon
UACC-62 melanoma = test system: UACC-62 melanoma
NCI-H23 lung = test system: NCI-H23 lung
MDA-MB-231 breast = test system: MDA-MB-231 breast
LOX IMVI melanoma = test system: LOX IMVI melanoma
SF-539 CNS = test system: SF-539 CNS
OVCAR-3 ovarian = test system: OVCAR-3 ovarian
EKVX NSCLC = test system: EKVX NSCLC
OVCAR-5 ovarian = test system: OVCAR-5 ovarian
MOLT-4 leukemia = test system: MOLT-4 leukemia
SF-295 CNS = test system: SF-295 CNS
A498 renal = test system: A498 renal
KM12 colon = test system: KM12 colon
786-0 renal = test system: 786-0 renal
NCI-H226 lung = test system: NCI-H226 lung
T-47D breast = test system: T-47D breast
UACC-257 melanoma = test system: UACC-257 melanoma
RPMI-8226 leukemia = test system: RPMI-8226 leukemia
HCC-2998 colon = test system: HCC-2998 colon
M14 melanoma = test system: M14 melanoma
SW-620 colon = test system: SW-620 colon
NCI/ADR-RES ovarian = test system: NCI/ADR-RES ovarian
SNB-75 CNS = test system: SNB-75 CNS
HL-60(TB) leukemia = test system: HL-60(TB) leukemia
IGROV1 ovarian = test system: IGROV1 ovarian

COc1ccc2c(c1)oc1c(C)c3c(c(C)c12)C(=O)N(N)C3=O
GI50 (OVCAR-4 ovarian): > 100 µM | TGI (OVCAR-4 ovarian): > 100 µM | GI50 (SF-268 CNS): 21.9 µM | TGI (SF-268 CNS): > 100 µM | GI50 (HT29 colon): > 100 µM | TGI (HT29 colon): > 100 µM | GI50 (MCF7 breast): 50.7 µM | TGI (MCF7 breast): > 100 µM | GI50 (HOP-92 NSCLC): > 100 µM | TGI (HOP-92 NSCLC): > 100 µM | GI50 (A549 NSCLC): > 100 µM | TGI (A549 NSCLC): > 100 µM | GI50 (SN12C renal): > 100 µM | TGI (SN12C renal): > 100 µM | GI50 (DU-145 prostate): > 100 µM | TGI (DU-145 prostate): > 100 µM | GI50 (NCI-H460 lung): 3.49 µM | TGI (NCI-H460 lung): > 100 µM | GI50 (COLO 205 colon): > 100 µM | TGI (COLO 205 colon): > 100 µM | GI50 (ACHN renal): 7.53 µM | TGI (ACHN renal): > 100 µM | GI50 (PC-3 prostate): > 100 µM | TGI (PC-3 prostate): > 100 µM | GI50 (CCRF-CEM leukemia): > 100 µM | TGI (CCRF-CEM leukemia): > 100 µM | GI50 (SNB-19 CNS): > 100 µM | TGI (SNB-19 CNS): > 100 µM | GI50 (UO-31 renal): > 100 µM | TGI (UO-31 renal): > 100 µM | GI50 (SK-MEL-28 melanoma): > 100 µM | TGI (SK-MEL-28 melanoma): > 100 µM | GI50 (HS 578T breast): 32.6 µM | TGI (HS 578T breast): > 100 µM | GI50 (TK-10 renal): > 100 µM | TGI (TK-10 renal): > 100 µM | GI50 (RXF 393 renal): 8.21 µM | TGI (RXF 393 renal): > 100 µM | GI50 (HOP-62 NSCLC): 25 µM | TGI (HOP-62 NSCLC): > 100 µM | GI50 (BT-549 breast): 5.2 µM | TGI (BT-549 breast): > 100 µM | GI50 (CAKI-1 renal): > 100 µM | TGI (CAKI-1 renal): > 100 µM | GI50 (MALME-3M melanoma): > 100 µM | TGI (MALME-3M melanoma): > 100 µM | GI50 (OVCAR-8 ovarian): 7.89 µM | TGI (OVCAR-8 ovarian): > 100 µM | GI50 (SK-MEL-2 melanoma): > 100 µM | TGI (SK-MEL-2 melanoma): > 100 µM | GI50 (HCT-15 colon): > 100 µM | TGI (HCT-15 colon): > 100 µM | GI50 (UACC-62 melanoma): > 100 µM | TGI (UACC-62 melanoma): > 100 µM | GI50 (NCI-H23 lung): > 100 µM | TGI (NCI-H23 lung): > 100 µM | GI50 (MDA-MB-231 breast): 61.9 µM | TGI (MDA-MB-231 breast): > 100 µM | GI50 (LOX IMVI melanoma): > 100 µM | TGI (LOX IMVI melanoma): > 100 µM | GI50 (SF-539 CNS): 78.8 µM | TGI (SF-539 CNS): > 100 µM | GI50 (OVCAR-3 ovarian): > 100 µM | TGI (OVCAR-3 ovarian): > 100 µM | GI50 (EKVX NSCLC): > 100 µM | TGI (EKVX NSCLC): > 100 µM | GI50 (OVCAR-5 ovarian): > 100 µM | TGI (OVCAR-5 ovarian): > 100 µM | GI50 (MOLT-4 leukemia): 23.4 µM | TGI (MOLT-4 leukemia): > 100 µM | GI50 (SF-295 CNS): > 100 µM | TGI (SF-295 CNS): > 100 µM | GI50 (A498 renal): 4.25 µM | TGI (A498 renal): > 100 µM | GI50 (KM12 colon): > 100 µM | TGI (KM12 colon): > 100 µM | GI50 (786-0 renal): 22.7 µM | TGI (786-0 renal): > 100 µM | GI50 (NCI-H226 lung): 40.4 µM | TGI (NCI-H226 lung): > 100 µM | GI50 (T-47D breast): > 100 µM | TGI (T-47D breast): > 100 µM | GI50 (UACC-257 melanoma): > 100 µM | TGI (UACC-257 melanoma): > 100 µM | GI50 (RPMI-8226 leukemia): > 100 µM | TGI (RPMI-8226 leukemia): > 100 µM | GI50 (HCC-2998 colon): > 100 µM | TGI (HCC-2998 colon): > 100 µM | GI50 (M14 melanoma): > 100 µM | TGI (M14 melanoma): > 100 µM | GI50 (SW-620 colon): > 100 µM | TGI (SW-620 colon): > 100 µM | GI50 (NCI/ADR-RES ovarian): > 100 µM | TGI (NCI/ADR-RES ovarian): > 100 µM | GI50 (SNB-75 CNS): 4.37 µM | TGI (SNB-75 CNS): > 100 µM | GI50 (HL-60(TB) leukemia): > 100 µM | TGI (HL-60(TB) leukemia): > 100 µM | GI50 (IGROV1 ovarian): > 100 µM | TGI (IGROV1 ovarian): > 100 µM
